{
  "source": "patent US20200085050A1",
  "about": "“Acyclic Picolinamides as a Seed Treatment” (priority 2017, published 2020)",
  "key": {"[1]": {"test_system": "Blumeria graminis f. sp. tritici", "experiment": "Seed treatment, wheat powdery mildew (ERYSGT) foliar disease control", "assay_type": "in vivo"}, "[2]": {"test_system": "Zymoseptoria tritici", "experiment": "Seed treatment, wheat leaf blotch (SEPTTR) foliar disease control", "assay_type": "in vivo"}, "[3]": {"test_system": "Rhynchosporium secalis", "experiment": "Seed treatment, barley scald (RHYNSE) foliar disease control", "assay_type": "in vivo"}, "[4]": {"test_system": "Phakopsora pachyrhizi", "experiment": "Seed treatment, soybean rust (PHAKPA) foliar disease control", "assay_type": "in vivo", "settings": "at any rate, data not shown"}, "[5]": {"test_system": "Rhizoctonia solani", "experiment": "Seed treatment, rice sheath blight (RHIZSO) foliar disease control", "assay_type": "in vivo"}, "[6]": {"test_system": "Blumeria graminis f. sp. hordei", "experiment": "Seed treatment, barley powdery mildew (ERYSGH) foliar disease control", "assay_type": "in vivo"}, "[7]": {"test_system": "Erysiphe cichoracearum", "experiment": "Seed treatment, cucumber powdery mildew (ERYSCI) foliar disease control", "assay_type": "in vivo"}, "[8]": {"test_system": "Pyricularia oryzae", "assay_type": "in vivo", "settings": "for PYRIOR rating of foliar disease control: rice"}, "[9]": {"settings": "in vivo", "from_the_text": "The treated seeds were planted in pots containing soil-less Metro mix within 2 weeks after treatment, and resultant seedling plants were inoculated with respective pathogens as described below. Four pots of the seedlings were inoculated for each treatment rate."}, "[10]": {"test_system": "Puccinia triticina", "experiment": "Seed treatment, wheat brown rust (PUCCRT) foliar disease control", "assay_type": "in vivo"}, "[11]": {"test_system": "Parastagonospora nodorum", "experiment": "Seed treatment, wheat glume blotch (LEPTNO) foliar disease control", "assay_type": "in vivo"}, "[12]": {"test_system": "Pseudoperonospora cubensis", "experiment": "Seed treatment, cucumber downy mildew (PSEUCU) foliar disease control", "assay_type": "in vivo"}, "[13]": {"test_system": "Colletotrichum lagenarium", "experiment": "Seed treatment, cucumber anthracnose (COLLLA) foliar disease control", "assay_type": "in vivo"}, "[14]": {"test_system": "Cochliobolus sativus", "experiment": "Seed treatment, spot blotch of barley (COCHSA) foliar disease control", "assay_type": "in vivo"}, "[15]": {"settings": "seed treatment 3.7 g ai/100 kg seeds"}, "[16]": {"settings": "seed treatment 11 g ai/100 kg seeds"}, "[17]": {"settings": "seed treatment 33.3 g ai/100 kg seeds"}, "[18]": {"settings": "seed treatment 100 g ai/100 kg seeds"}, "[19]": {"settings": "seed treatment 300 g ai/100 kg seeds"}, "[20]": {"settings": "seed treatment, summary of Table 2"}, "[21]": {"settings": "seed treatment, summary of Table 3"}, "[22]": {"settings": "seed treatment, summary of Table 5"}, "[23]": {"settings": "seed treatment, summary of Table 4"}},
  "note": "Read-outs that look alike come from different tables or passages of the source.",
  "data": [
    {"compound": "COc1ccnc(C(=O)N[C@@H](C)C(=O)O[C@@H](C)C(c2ccc(F)cc2)c2ccc(F)cc2)c1OC(C)=O", "note": "[I, (S)-1,1-bis(4-fluorophenyl)propan-2-yl (3-acetoxy-4-methoxypicolinoyl)-L-alaninate]", "values": [
      {"measurement": "ERYSGT rating of foliar disease control", "setting": "[1]; [15]", "result": "D (0-25)"},
      {"measurement": "ERYSGT rating of foliar disease control", "setting": "[1]; [16]", "result": "D (0-25)"},
      {"measurement": "ERYSGT rating of foliar disease control", "setting": "[1]; [17]", "result": "B (51-75)"},
      {"measurement": "ERYSGT rating of foliar disease control", "setting": "[1]; [18]", "result": "A (76-100)"},
      {"measurement": "ERYSGT rating of foliar disease control", "setting": "[1]; [19]", "result": "A (76-100)"},
      {"measurement": "activity against powdery mildew (ERYSGT), in words", "setting": "[1]; [20]", "result": "moderate activity"},
      {"measurement": "SEPTTR rating of foliar disease control", "setting": "[2]; [15]", "result": "A (76-100)"},
      {"measurement": "SEPTTR rating of foliar disease control", "setting": "[2]; [16]", "result": "A (76-100)"},
      {"measurement": "SEPTTR rating of foliar disease control", "setting": "[2]; [17]", "result": "A (76-100)"},
      {"measurement": "SEPTTR rating of foliar disease control", "setting": "[2]; [18]", "result": "A (76-100)"},
      {"measurement": "SEPTTR rating of foliar disease control", "setting": "[2]; [19]", "result": "A (76-100)"},
      {"measurement": "protection against leaf blotch (SEPTTR), in words", "setting": "[2]; [20]", "result": "excellent protection"},
      {"measurement": "RHYNSE rating of foliar disease control", "setting": "[3]; [15]", "result": "D (0-25)"},
      {"measurement": "RHYNSE rating of foliar disease control", "setting": "[3]; [16]", "result": "D (0-25)"},
      {"measurement": "RHYNSE rating of foliar disease control", "setting": "[3]; [17]", "result": "C (26-50)"},
      {"measurement": "RHYNSE rating of foliar disease control", "setting": "[3]; [18]", "result": "B (51-75)"},
      {"measurement": "RHYNSE rating of foliar disease control", "setting": "[3]; [19]", "result": "A (76-100)"},
      {"measurement": "activity on barley scald (RHYNSE), in words", "setting": "[3]; [21]", "result": "moderate activity"},
      {"measurement": "activity on Asian soybean rust (PHAKPA), in words", "setting": "[4]", "result": "no activity"},
      {"measurement": "RHIZSO rating of foliar disease control", "setting": "[5]; [15]", "result": "D (0-25)"},
      {"measurement": "RHIZSO rating of foliar disease control", "setting": "[5]; [16]", "result": "D (0-25)"},
      {"measurement": "RHIZSO rating of foliar disease control", "setting": "[5]; [17]", "result": "D (0-25)"},
      {"measurement": "RHIZSO rating of foliar disease control", "setting": "[5]; [18]", "result": "D (0-25)"},
      {"measurement": "RHIZSO rating of foliar disease control", "setting": "[5]; [19]", "result": "D (0-25)"},
      {"measurement": "activity on rice sheath blight (RHIZSO), in words", "setting": "[5]; [22]", "result": "little activity"},
      {"measurement": "ERYSGH rating of foliar disease control", "setting": "[6]; [15]", "result": "D (0-25)"},
      {"measurement": "ERYSGH rating of foliar disease control", "setting": "[6]; [16]", "result": "A (76-100)"},
      {"measurement": "ERYSGH rating of foliar disease control", "setting": "[6]; [17]", "result": "A (76-100)"},
      {"measurement": "ERYSGH rating of foliar disease control", "setting": "[6]; [18]", "result": "A (76-100)"},
      {"measurement": "ERYSGH rating of foliar disease control", "setting": "[6]; [19]", "result": "A (76-100)"},
      {"measurement": "activity on powdery mildew (ERYSGH), in words", "setting": "[6]; [21]", "result": "excellent activity"},
      {"measurement": "ERYSCI rating of foliar disease control", "setting": "[7]; [15]", "result": "D (0-25)"},
      {"measurement": "ERYSCI rating of foliar disease control", "setting": "[7]; [16]", "result": "D (0-25)"},
      {"measurement": "ERYSCI rating of foliar disease control", "setting": "[7]; [17]", "result": "D (0-25)"},
      {"measurement": "ERYSCI rating of foliar disease control", "setting": "[7]; [18]", "result": "B (51-75)"},
      {"measurement": "ERYSCI rating of foliar disease control", "setting": "[7]; [19]", "result": "A (76-100)"},
      {"measurement": "activity on powdery mildew (ERYSCI), in words", "setting": "[7]; [23]", "result": "moderate activity"},
      {"measurement": "PYRIOR rating of foliar disease control", "setting": "[8]; [15]", "result": "B (51-75)"},
      {"measurement": "PYRIOR rating of foliar disease control", "setting": "[8]; [16]", "result": "B (51-75)"},
      {"measurement": "PYRIOR rating of foliar disease control", "setting": "[8]; [17]", "result": "A (76-100)"},
      {"measurement": "PYRIOR rating of foliar disease control", "setting": "[8]; [18]", "result": "A (76-100)"},
      {"measurement": "PYRIOR rating of foliar disease control", "setting": "[8]; [19]", "result": "A (76-100)"},
      {"measurement": "activity on rice blast (PYRIOR), in words", "setting": "[8]; [22]", "result": "strong activity"},
      {"measurement": "stunting or phytotoxicity", "setting": "[9]", "result": "no evidence of stunting or phytotoxicity"},
      {"measurement": "PUCCRT rating of foliar disease control", "setting": "[10]; [15]", "result": "D (0-25)"},
      {"measurement": "PUCCRT rating of foliar disease control", "setting": "[10]; [16]", "result": "D (0-25)"},
      {"measurement": "PUCCRT rating of foliar disease control", "setting": "[10]; [17]", "result": "D (0-25)"},
      {"measurement": "PUCCRT rating of foliar disease control", "setting": "[10]; [18]", "result": "C (26-50)"},
      {"measurement": "PUCCRT rating of foliar disease control", "setting": "[10]; [19]", "result": "A (76-100)"},
      {"measurement": "activity against brown rust (PUCCRT), in words", "setting": "[10]; [20]", "result": "moderate activity"},
      {"measurement": "LEPTNO rating of foliar disease control", "setting": "[11]; [15]", "result": "A (76-100)"},
      {"measurement": "LEPTNO rating of foliar disease control", "setting": "[11]; [16]", "result": "A (76-100)"},
      {"measurement": "LEPTNO rating of foliar disease control", "setting": "[11]; [17]", "result": "A (76-100)"},
      {"measurement": "LEPTNO rating of foliar disease control", "setting": "[11]; [18]", "result": "A (76-100)"},
      {"measurement": "LEPTNO rating of foliar disease control", "setting": "[11]; [19]", "result": "A (76-100)"},
      {"measurement": "protection against glume blotch (LEPTNO), in words", "setting": "[11]; [20]", "result": "excellent protection"},
      {"measurement": "PSEUCU rating of foliar disease control", "setting": "[12]; [15]", "result": "D (0-25)"},
      {"measurement": "PSEUCU rating of foliar disease control", "setting": "[12]; [16]", "result": "D (0-25)"},
      {"measurement": "PSEUCU rating of foliar disease control", "setting": "[12]; [17]", "result": "D (0-25)"},
      {"measurement": "PSEUCU rating of foliar disease control", "setting": "[12]; [18]", "result": "D (0-25)"},
      {"measurement": "PSEUCU rating of foliar disease control", "setting": "[12]; [19]", "result": "D (0-25)"},
      {"measurement": "activity on downy mildew (PSEUCU), in words", "setting": "[12]; [23]", "result": "little activity"},
      {"measurement": "COLLLA rating of foliar disease control", "setting": "[13]; [15]", "result": "D (0-25)"},
      {"measurement": "COLLLA rating of foliar disease control", "setting": "[13]; [16]", "result": "B (51-75)"},
      {"measurement": "COLLLA rating of foliar disease control", "setting": "[13]; [17]", "result": "B (51-75)"},
      {"measurement": "COLLLA rating of foliar disease control", "setting": "[13]; [18]", "result": "A (76-100)"},
      {"measurement": "COLLLA rating of foliar disease control", "setting": "[13]; [19]", "result": "A (76-100)"},
      {"measurement": "activity on anthracnose (COLLLA), in words", "setting": "[13]; [23]", "result": "strong activity"},
      {"measurement": "COCHSA rating of foliar disease control", "setting": "[14]; [15]", "result": "D (0-25)"},
      {"measurement": "COCHSA rating of foliar disease control", "setting": "[14]; [16]", "result": "D (0-25)"},
      {"measurement": "COCHSA rating of foliar disease control", "setting": "[14]; [17]", "result": "D (0-25)"},
      {"measurement": "COCHSA rating of foliar disease control", "setting": "[14]; [18]", "result": "D (0-25)"},
      {"measurement": "COCHSA rating of foliar disease control", "setting": "[14]; [19]", "result": "D (0-25)"},
      {"measurement": "activity on spot blotch (COCHSA), in words", "setting": "[14]; [21]", "result": "little activity"}
    ]}
  ]
}
